Results: article PMC8653674, “Design, Synthesis, Docking Study and Biological Evaluation of 4-Hydroxy-2H-benzo[e][1,2]thiazine-3-carboxamide 1,1-dioxide Derivatives as Anti-HIV Agents” (Iranian Journal of Pharmaceutical Research : IJPR, 2021)
Like-named read-outs stand apart in the source and are kept apart here.

Key:
[1] = tested on: single-cycle replicable HIV NL4-3 virions in Hela cells; experiment: single cycle HIV-1 replication assay (inhibition of p24 expression, capture ELISA); assay type: cell-based
Description: (§1) The anti-HIV-1 activity of target compounds was evaluated in a single cycle replication assay evaluated in our laboratory and reported previously. In this assay, the single-cycle replicable HIV NL4-3 virions (200 ng p24) were inoculated concurrently with compounds in different concentrations to the Hela cells. The inhibition rate (%) of p24 expression was measured by capture ELISA (Biomerieux, France) 72 hours after inoculation. Percentage inhibition of p24 expression in treated culture was calculated as inhibition rate of p24 (%). The XTT (sodium3-[1(phenylaminocarbonyl)-3,4-tetrazolium]-bis(4-methoxy-6-nitro)benzene sulfonic acid) proliferation assay was conducted to evaluate the cellular toxicity according to the kit instructions. The cytotoxic concentration that reduced the number of viable cells by 50% (CC50) was calculated after the determination of p24 load in the HIV-1 replication assay plates ([37]-[40]).
(§2) Fourteen 1,2-benzothiazine-3-carboxamide 1,1-dioxide derivatives containing different substituents at N-2 positions (12 and 13a-m) were synthesized and evaluated to inhibit the single-cycle HIV replication inhibition HeLa cell culture. Cytotoxicity of compounds was also tested in the same cell line to ensure the safety of compounds. Raltegravir was used as a positive control. Anti-HIV activity and cytotoxicity of compounds were expressed as EC50 and CC50, respectively. Selectivity Index (SI) was calculated using CC50/EC50 ratio.

Hela cells = experiment: XTT proliferation assay for cellular toxicity; assay type: cell-based
Description: as §1, §2

[2] = XTT proliferation assay for cellular toxicity; assay type: cell-based; conditions: human; cytotoxicity in Hela cells, XTT
Description: as §1, §2

[3] = tested on: single-cycle replicable HIV NL4-3 virions in Hela cells; parameters: method as in previously reported (b6); conditions: piroxicam value in Table 1, said in b54 to be previously reported; ref previously reported (b6); cited from earlier work
[4] = Human immunodeficiency virus 1, NL43, HeLa, 72 h

**Q.** Which results are given for “2-(3,4-Dichlorobenzyl)-4-hydroxy-2H-benzo[e][1,2]thiazine-3-carboxamide 1,1-dioxide [Compound 13i]”?
**A.** EC50 ([1]; anti-HIV activity, single-cycle HIV NL4-3 in Hela cells, p24 at 72 hours, read-out: EC50): 110 µM; CC50 (Hela cells): 510 µM

**Q.** Which EC50 [1, 4] does the source give for `NC(=O)C1=C(O)c2ccccc2S(=O)(=O)N1` [Compound 12, 4-hydroxy-2H-benzo[e][1,2]thiazine-3-carboxamide 1,1-dioxide] here?
**A.** 105 µM

**Q.** And the CC50 at 72 h [2]?
**A.** 950 µM

**Q.** And the melting point?
**A.** 244 °C (dec.)

**Q.** Which EC50 [1, 4] does the source give for `CCN1C(C(N)=O)=C(O)c2ccccc2S1(=O)=O` [Compound 13a, 2-Ethyl-4-hydroxy-2H-benzo[e][1,2]thiazine-3-carboxamide 1,1-dioxide] here?
**A.** 80 µM

**Q.** And the CC50 at 72 h [2]?
**A.** 550 µM

**Q.** Which EC50 [1, 4] does the source give for `NC(=O)C1=C(O)c2ccccc2S(=O)(=O)N1CC1CCCCC1` [Compound 13b, 2-(Cyclohexylmethyl)-4-hydroxy-2H-benzo[e][1,2]thiazine-3-carboxamide 1,1-dioxide] here?
**A.** 100 µM

**Q.** What about the CC50 at 72 h [2] of the same compound?
**A.** 400 µM

**Q.** And the melting point?
**A.** 263 to 264 °C

**Q.** With `NC(=O)C1=C(O)c2ccccc2S(=O)(=O)N1Cc1ccccc1` [Compound 13c, 2-Benzyl-4-hydroxy-2H-benzo[e][1,2]thiazine-3-carboxamide 1,1-dioxide] as the compound, how does the EC50 [1, 4] read?
**A.** 45 µM

**Q.** And the CC50 at 72 h [2]?
**A.** 600 µM

**Q.** What about the melting point of the same compound?
**A.** 270 to 275 °C

**Q.** Which EC50 [1, 4] does the source give for `Cc1ccc(CN2C(C(N)=O)=C(O)c3ccccc3S2(=O)=O)cc1` [Compound 13d, 4-Hydroxy-2-(4-methylbenzyl)-2H-benzo[e][1,2]thiazine-3-carboxamide 1,1-dioxide] here?
**A.** 25 µM

**Q.** And the CC50 at 72 h [2]?
**A.** 680 µM

**Q.** What does the source list for `Cc1ccccc1CN1C(C(N)=O)=C(O)c2ccccc2S1(=O)=O` [Compound 13e, 4-Hydroxy-2-(2-methylbenzyl)-2H-benzo[e][1,2]thiazine-3-carboxamide 1,1-dioxide]?
**A.** EC50 [1, 4]: 55 µM; CC50 at 72 h [2]: 650 µM; melting point: 268 to 271 °C

**Q.** For `COc1cccc(CN2C(C(N)=O)=C(O)c3ccccc3S2(=O)=O)c1` [Compound 13f, 4-Hydroxy-2-(3-methoxybenzyl)-2H-benzo[e][1,2]thiazine-3-carboxamide 1,1-dioxide], which EC50 [1, 4] is on record?
**A.** 50 µM

**Q.** What about the CC50 at 72 h [2] of the same compound?
**A.** 640 µM

**Q.** And the melting point?
**A.** 273 to 275 °C

**Q.** Which results are given for `NC(=O)C1=C(O)c2ccccc2S(=O)(=O)N1Cc1ccccc1Cl` [Compound 13g, 2-(2-Chlorobenzyl)-4-hydroxy-2H-benzo[e][1,2]thiazine-3-carboxamide 1,1-dioxide]?
**A.** EC50 [1, 4]: 40 µM; CC50 at 72 h [2]: 650 µM

**Q.** What does the source list for `NC(=O)C1=C(O)c2ccccc2S(=O)(=O)N1Cc1ccc(Cl)cc1` [Compound 13h, 2-(4-Chlorobenzyl)-4-hydroxy-2H-benzo[e][1,2]thiazine-3-carboxamide 1,1-dioxide]?
**A.** EC50 [1, 4]: 55 µM; CC50 at 72 h [2]: 610 µM

**Q.** With `NC(=O)C1=C(O)c2ccccc2S(=O)(=O)N1Cc1ccccc1F` [Compound 13j, 2-(2-Fluorobenzyl)-4-hydroxy-2H-benzo[e][1,2]thiazine-3-carboxamide 1,1-dioxide] as the compound, how does the EC50 [1, 4] read?
**A.** 35 µM

**Q.** What about the CC50 at 72 h [2] of the same compound?
**A.** 680 µM

**Q.** And the melting point?
**A.** 268 to 273 °C

**Q.** With `NC(=O)C1=C(O)c2ccccc2S(=O)(=O)N1Cc1cccc(F)c1` [Compound 13k, 2-(3-Fluorobenzyl)-4-hydroxy-2H-benzo[e][1,2]thiazine-3-carboxamide 1,1-dioxide] as the compound, how does the EC50 [1, 4] read?
**A.** 60 µM

**Q.** What about the CC50 at 72 h [2] of the same compound?
**A.** 550 µM

**Q.** And the melting point?
**A.** 271 to 275 °C

**Q.** Which EC50 [1, 4] does the source give for `NC(=O)C1=C(O)c2ccccc2S(=O)(=O)N1Cc1ccc(F)cc1` [Compound 13l, 2-(4-Fluorobenzyl)-4-hydroxy-2H-benzo[e][1,2]thiazine-3-carboxamide 1,1-dioxide] here?
**A.** 20 µM

**Q.** What about the CC50 at 72 h [2] of the same compound?
**A.** 650 µM

**Q.** Which EC50 [1, 4] does the source give for `NC(=O)C1=C(O)c2ccccc2S(=O)(=O)N1Cc1ccc([N+](=O)[O-])cc1` [Compound 13m, 4-Hydroxy-2-(4-nitrobenzyl)-2H-benzo[e][1,2]thiazine-3-carboxamide 1,1-dioxide] here?
**A.** 25 µM

**Q.** And the CC50 at 72 h [2]?
**A.** 650 µM

**Q.** And the melting point?
**A.** 288 °C (dec.)

**Q.** What does the source list for `CN1C(C(=O)Nc2ccccn2)=C(O)c2ccccc2S1(=O)=O` [Piroxicam, piroxicam, reference compound]?
**A.** CC50 at 72 h [2]: 900 µM; EC50 [3]: 120 µM

**Q.** Which results are given for `Cc1nnc(C(=O)NC(C)(C)c2nc(C(=O)NCc3ccc(F)cc3)c(O)c(=O)n2C)o1` [Raltegravir, raltegravir, reference compound]?
**A.** EC50 [1, 4]: 0.9 µM; CC50 at 72 h [2]: > 500 µM
